For assay [1], the system named is HPV16 E7 mRNA. The assay can be described thus: Northern blotting for HPV16 E7 mRNA in CaSki cells. Type of assay: cell-based. The note with it: 24 hours incubation, concentration series in μM. As to the method:
(§1) Ciglitazone was incubated with CaSki cells (prototypic cervical cancer cells known to be infected with HPV16). The number of CaSki cells was 3×10^6 in a 10 cm diameter dish. Incubation were carried out for 24 hours with 0, 1, 5, 10 and 20 μM ciglitazone.
(§2) Western blotting was carried out to determine levels of HPV16 E7 protein. […] Northern blotting was carried out to determine levels of HPV16 E7 mRNA. […] Nuclear run-off testing was carried out to determine level of gene transcription.
NS-398 at concentrations of 0, 10, 20, 40, 60, 100, 250 and 500 μM was incubated with CaSki cells (3×10^6 in a 10 cm diameter dish) for 24 hours.
Northern blotting was carried out to determine HPV16 E7 mRNA levels in each case.

The next assay relates to HPV16 E6 mRNA. The assay can be described thus: Northern blotting for HPV16 E6 mRNA in CaSki cells. Type of assay: cell-based. The note with it: for HPV16 E6 mRNA (Northern blot): Background Example 7: CaSki cells, 24 hours, curcumin 5 μM, resveratrol 15 μM, ciglitazone 20 μM, 15d-PGJ2 15 μM; for levels of HPV16 E6 mRNA (Northern blot): CaSki cells, 24 hours incubation, concentration series in μM. As to the method: (§3) Celebrex™ at concentrations of 0, 0.1, 0.25, 0.5, 1.0, 2.5 and 5.0 μM was incubated with CaSki cell (3.0×10^6 in a 10 cm diameter dish) for 24 hours.
Curcumin (5 μM), resveratrol (15 μM), ciglitazone (20 μM) or 15d-PGJ2 (15 μM) were incubated with CaSki cells (3×10^6 in a 10 cm diameter dish) for 24 hours.
Northern blot testing was carried our for HPV16 E6 mRNA.

In assay [2] the test system is HPV mediated cutaneous warts. The assay can be described thus: Topical treatment of patient with HPV mediated cutaneous warts. The following applies: ointment containing 5%, twice a day, three months. In kind it is in vivo, human. The text has this:
A child presents to a local dermatologist because of small cutaneous growths on the hand. A diagnosis of HPV mediated cutaneous warts is made. The patient is instructed to apply an ointment containing 5% rosiglitazone to the affected areas twice a day. […] The same results occur with an ointment containing 5% resveratrol instead of the ointment containing rosiglitazone.

For assay [3], the system named is HPV16 E7 mRNA. The assay can be described thus: EGF-mediated induction of HPV16 E7 mRNA in CaSki cells (Northern blot). Type of assay: cell-based. The note with it: for EGF-mediated induction of HPV16 E7 (Northern blot, mRNA): Background Example 6: EGF 10 nanograms/ml, 100 μM NSAID, 25 μM 15d-PGJ2; for EGF-mediated induction of HPV16 E7 mRNA (Northern blot): Background Example 5: EGF 10 nanograms/ml, 50 or 100 μM sulindac sulfide, 15 μM ciglitazone, 15 μM 15d-PGJ2. As to the method:
Epidermal growth factor at 10 nanograms/ml was added to CaSki cells (3×10^6 in a 10 cm diameter dish) together with 50 μM sulindac sulfide or 100 μM sulindac sulfide or 15 μM ciglitazone or 15 μM 15d-PGJ2.
Northern blot testing was carried out for HPV16 E7 mRNA.
Epidermal growth factor (EGF) at 10 nanograms/ml was incubated with CaSki cells (3×10^6 in a 10 cm diameter dish) and 100 μM ibuprofen, 100 μM piroxicam, 100 μM S-naproxen, 100 μM aspirin, 100 μM sulindac sulfone, 100 μM sulindac sulfide, 100 μM naproxen, 100 μM indomethacin, 100 μM flufenamic acid and for comparison purposes 25 μM 15d-PGJ2.

Assay [4] deals with HPV16. The assay is described as follows: Treatment of patient with metastasized cervical cancer. In kind it is in vivo, human. The note with it: 50 mg orally three times a day for 12 months plus radiation therapy after hysterectomy. As to the method: A person seeks gynecologic evaluation because of pelvic pain. On pelvic examination, a cervical mass is detected. […] The patient undergoes a hysterectomy along with resection of regional lymph nodes. […] HPV16 is detected. The patient is treated with a course of radiation therapy plus indomethacin 50 mg orally three times a day for 12 months. […] The indomethacin is discontinued.

For assay [5], the system named is HPV16 upstream regulatory region (URR). The assay is described as follows: HPV16 upstream regulatory region luciferase reporter transfected into CaSki cells. Type of assay: cell-based. The note with it: 24 hours, 0-25 μM, FIG. 1. On the procedure:
HPV16 upstream regulatory region (URR) ligated to luciferase gene transfected into CaSki cells is incubated for 24 hours with ciglitazone and with 15d-PGJ2 (in each case, concentration of 0 μM, 5 μM, 10 μM, 15 μM, 20 μM and 25 μM). […] Note that cells contain endogenous activator that drives expression of E7, and ciglitazone and 15d-PGJ2 are shown to inhibit the activation.
For orientation: A reporter such as luciferase makes a cellular process visible.

The test system of another assay is HPV16 E7 protein. The assay is described as follows: Western blotting for HPV16 E7 protein in CaSki cells. The note with it: 24 hours incubation, concentration series in μM. In kind it is cell-based. On the procedure: as §1, §2, §3
In general terms: In western blotting, separated proteins are transferred to a membrane and probed.

Assay [6] deals with HPV16. The assay is described as follows: Treatment of patient with cervical intraepithelial neoplasia. In kind it is in vivo, human. The note with it: 25 mg orally each day for six months. As to the method: A person presents to their gynecologist for evaluation. […] On biopsy, the patient is found to have cervical intraepithelial neoplasia. HPV16 is detected. Treatment with Vioxx™ 25 mg orally each day is begun and given for six months. […] The Vioxx™ is discontinued with no recurrence of cervical intraepithelial neoplasia.

On to `CS(=O)(=O)Nc1ccc([N+](=O)[O-])cc1OC1CCCCC1` [NS-398, N-[2-(cylohexyloxy)-4-nitrophenyl]-methanesulfonamide], for which the “levels of HPV16 E7 mRNA (Northern blot)” value in the assay on HPV16 E7 mRNA [1] was “dose dependent suppression”.

With `Oc1ccc(C=Cc2cc(O)cc(O)c2)cc1` [resveratrol], in the assay with HPV16 E6 mRNA, the “HPV16 E6 mRNA (Northern blot)” value was “downregulation”. Further, the “cutaneous warts after topical treatment” value in assay [2] is given as “same results”.

With `CN1C(C(=O)Nc2ccccn2)=C(O)c2ccccc2S1(=O)=O` [piroxicam], the “EGF-mediated induction of HPV16 E7 (Northern blot, mRNA)” value in the assay with HPV16 E7 mRNA [3] was “not”.

Consider `COc1ccc2cc([C@H](C)C(=O)O)ccc2c1` [S-naproxen], for which, in the assay with HPV16 E7 mRNA [3], the “EGF-mediated induction of HPV16 E7 (Northern blot, mRNA)” value is on record as “not”.

On to `COc1ccc2c(c1)c(CC(=O)O)c(C)n2C(=O)c1ccc(Cl)cc1` [indomethacin], for which, in the assay with HPV16 [4], the “repeat CAT scan, cervical cancer” value is recorded as “no evidence of disease”. In addition, the “EGF-mediated induction of HPV16 E7 (Northern blot, mRNA)” value in the assay with HPV16 E7 mRNA [3] was “inhibition”.

Turning to `CCCCC/C=C/C=C1/C(=O)C=C[C@@H]1C/C=C\CCCC(=O)O` [15d-PGJ2, 15-deoxy-Δ12,14-prostaglandin J2], the “HPV16 E6 mRNA (Northern blot)” value in the assay on HPV16 E6 mRNA was “downregulation”. In addition, in assay [5], the “luciferase activity of HPV16 upstream regulatory region” value is reported as “dose dependent inhibition”. Also, in the assay with HPV16 E7 mRNA [3], the “EGF-mediated induction of HPV16 E7 mRNA (Northern blot)” value was “inhibition” and the “EGF-mediated induction of HPV16 E7 (Northern blot, mRNA)” value is listed as “inhibition”.

For `CC(C)Cc1ccc(C(C)C(=O)O)cc1` (stereo not shown) [ibuprofen], the “EGF-mediated induction of HPV16 E7 (Northern blot, mRNA)” value in the assay on HPV16 E7 mRNA [3] is listed as “not”.

Consider `CS(=O)(=O)c1ccc(-c2cc(Br)sc2-c2ccc(F)cc2)cc1` [DuP-697, 5-bromo-2-(4-fluorophenyl)-3-(4-(methylsulfonyl)phenyl)thiophene], for which the “levels of HPV16 E7 protein (Western blot)” value (from here on “levels of HPV16 E7 protein”) in the assay on HPV16 E7 protein was “suppression”. In addition, the “levels of HPV16 E6 mRNA (Northern blot)” value in the assay on HPV16 E6 mRNA is “suppression”.

`Cc1ccc(-c2cc(C(F)(F)F)nn2-c2ccc(S(N)(=O)=O)cc2)cc1` [Celebrex™, 4-[5-(4-methylphenyl)-3-(trifluoromethyl)-1H-pyrazol-1-yl]benzenesulfonamide]: the “levels of HPV16 E7 protein” value with HPV16 E7 protein was “dose dependent suppression”. The “levels of HPV16 E6 mRNA (Northern blot)” value in the assay on HPV16 E6 mRNA is recorded as “dose dependent suppression”.

In the case of `CCCCCCCOC(=O)Cc1c(C)n(C(=O)c2ccc(Cl)cc2)c2ccc(OC)cc12` [Indomethacin heptyl ester], the “levels of HPV16 E7 protein” value in the assay on HPV16 E7 protein was “dose dependent suppression”. In the assay with HPV16 E6 mRNA, the “levels of HPV16 E6 mRNA (Northern blot)” value is recorded as “dose dependent suppression”.

For the compound `CC1=C(CC(=O)O)c2cc(F)ccc2/C1=C\c1ccc(S(C)(=O)=O)cc1` [sulindac sulfone], the “EGF-mediated induction of HPV16 E7 (Northern blot, mRNA)” value in the assay with HPV16 E7 mRNA [3] is listed as “inhibition”.

For the compound `CC(=O)Oc1ccccc1C(=O)O` [aspirin], in the assay on HPV16 E7 mRNA [3], the “EGF-mediated induction of HPV16 E7 (Northern blot, mRNA)” value is “not”.

For `COc1ccc2c(c1)c(CC(=O)NCCc1ccccc1)c(C)n2C(=O)c1ccc(Cl)cc1` [N-(2-phenylethyl)-indomethacin amide], the “levels of HPV16 E7 protein” value in the assay with HPV16 E7 protein was “dose dependent suppression”. The “levels of HPV16 E6 mRNA (Northern blot)” value in the assay with HPV16 E6 mRNA is “dose dependent suppression”.

For the compound `COc1cc(/C=C/C(=O)CC(=O)/C=C/c2ccc(O)c(OC)c2)ccc1O` [curcumin], in the assay with HPV16 E6 mRNA, the “HPV16 E6 mRNA (Northern blot)” value is reported as “downregulation”.

For the compound `CSc1ccc(/C=C2/C(C)=C(CC(=O)O)c3cc(F)ccc32)cc1` [sulindac sulfide], in the assay with HPV16 E7 mRNA [3], the “EGF-mediated induction of HPV16 E7 mRNA (Northern blot)” value is “inhibition” and the “EGF-mediated induction of HPV16 E7 (Northern blot, mRNA)” value was “inhibition”.

With `O=C(O)c1ccccc1Nc1cccc(C(F)(F)F)c1` [flufenamic acid], the “EGF-mediated induction of HPV16 E7 (Northern blot, mRNA)” value in the assay with HPV16 E7 mRNA [3] is recorded as “inhibition”.

As for `CS(=O)(=O)c1ccc(-n2nc(C(F)(F)F)cc2-c2ccc(F)cc2)cc1` [SC-58125, 4-[5-(4-fluorophenyl)-3-(trifluoromethyl)-1H-pyrazol-1-yl]benzenemethylsulfone], in the assay on HPV16 E7 protein, the “levels of HPV16 E7 protein” value is listed as “suppression”. For the same compound, in the assay with HPV16 E6 mRNA, the “levels of HPV16 E6 mRNA (Northern blot)” value was “suppression”.

As for `CS(=O)(=O)c1ccc(C2=C(c3ccccc3)C(=O)OC2)cc1` [Vioxx™, 3-(phenyl)-4-(4-(methylsulfonyl)phenyl)-2-(5H)-furanone], the “cervical intraepithelial neoplasia on repeat biopsy” value with HPV16 [6] is “no further evidence of cervical intraepithelial neoplasia”.

On to `COc1ccc2cc([C@H](C)C(=O)O)ccc2c1` [naproxen], for which the “EGF-mediated induction of HPV16 E7 (Northern blot, mRNA)” value with HPV16 E7 mRNA [3] is “inhibition”.

On to `COc1ccc(-n2nc(C(F)(F)F)cc2-c2ccc(Cl)cc2)cc1` [SC-560, 5-(4-chlorophenyl)-1-(4-methoxyphenyl)-3-(trifluoromethyl)-1H-pyrazole], for which the “levels of HPV16 E7 protein” value with HPV16 E7 protein was “suppression”. Besides, in the assay with HPV16 E6 mRNA, the “levels of HPV16 E6 mRNA (Northern blot)” value is on record as “suppression”. Moreover, the “cervical intraepithelial neoplasia on repeat biopsy” value in the assay with HPV16 [6] is “no evidence of cervical intraepithelial neoplasia”.

For `NS(=O)(=O)c1ccc(-n2nc(C(F)(F)F)cc2-c2ccc(Cl)cc2)cc1` [SC-236], the “levels of HPV16 E7 protein” value with HPV16 E7 protein is “dose dependent suppression”. Also, in the assay on HPV16 E6 mRNA, the “levels of HPV16 E6 mRNA (Northern blot)” value is “dose dependent suppression”.

For `NS(=O)(=O)c1ccc(-n2nc(C(F)(F)F)cc2-c2ccccc2)cc1` [4-[5-Phenyl-3-(trifluoromethyl)-1H-pyrazol-1-yl]benzenesulfonamide], the “levels of HPV16 E7 protein” value with HPV16 E7 protein is reported as “suppression”. For the same compound, the “levels of HPV16 E6 mRNA (Northern blot)” value with HPV16 E6 mRNA was “suppression”.

Values taken from patent US7183316B2, “Treatment of HPV caused diseases” (Cornell Research Foundation, Inc., priority 2001, dated 2007).
